Marks after values point to notes of the source that are not given here.

One assay deals with Hydrochloric acid-Ethanol-Induced Ulcers. Description: Hydrochloric acid-Ethanol-Induced Ulcers. To be noted: Rattus norvegicus, intraduodenal, 1 h, Table 2; dose 5 mg/kg intraduodenally one hour before hydrochloric acid - 60% ethanol; read-out: Inhibition ratio(%). Format: in vivo, male Wister rats. On the procedure: Experiments on Hydrochloric acid-Ethanol-Induced Ulcers, Aspirin-Induced Ulcers, Water-Immersion stress-Induced Ulcers, Shay's Ulcers and Serotonin-Induced Ulcers were carried out using male Wister rats weighing about 200g in groups of six. Experiments on Ischemia-Reperfusion -Induced Gastric Lesions were carried out using male SD rats weighing about 250g in groups of six. Other than for the tests on Ischemia-Reperfusion-Induced Gastric Lesions Models, the test compounds were prepared by mixing thoroughly with polyethyleneglycol and 0.5% sodium carboxymethyl cellulose solution and emulsifying vigorously. Activities against respective ulcer models were evaluated by an inhibiting ratio obtained by dividing the difference between the ulceration indexes of the non-administered group and the test compound group by the non-administered group.
To each rat which had been fasted for 24 hours was orally administered 0.5ml of a mixed solution of 150 mM hydrochloric acid - 60% ethanol per 100g of weight. Each rat was slaughtered after one hour, a length of ulcer formed at the fundus gland area of stomach was measured and ulceration index was calculated based on the length. The test compound was administered intraduodenally one hour or three hours before the administration of mixed solution of hydrochloric acid - 60% ethanol.
Turning to `COC1C=C(C)C2(OC)CC(C)(C)C1O2` (centres unmarked) [AU155, 1,4-dimethoxy-2,6,6-trimethyl-8-oxabicyclo [3. 2. 1] oct-2-ene], the inhibition in vivo at 5 mg/kg amounted to 93%.

Regarding `COC12CC(C)(C)C(O1)C(OCc1ccccc1)C=C2C` (centres unmarked) [AU157, 1-methoxy-4-benzyloxy-2,6,6-trimethyl-8-oxabicyclo [3.2.1] oct-2-ene], the inhibition in vivo at 5 mg/kg was 64%.

On to `COC12CC(C)(C)C(O1)C(OC(C)=O)C=C2C` (centres unmarked) [AU158, 4-acetoxy-1-methoxy-2,6,6-trimethyl-8-oxabicyclo [3.2.1] oct-2-ene], for which the inhibition in vivo at 5 mg/kg is 33%.

For the compound `COC12CC(C)(C)C(OC(C)=O)C(C=C1C)O2` (centres unmarked) [AU159, 4-acetoxy-1-methoxy-3,3,7-trimethyl-8-oxabicyclo [3.2.1] oct-6-ene], the inhibition in vivo at 5 mg/kg is 94%.

The assay is the same for the next values; noted with them: Rattus norvegicus, intraduodenal, 1 h, Table 2; dose 10 mg/kg intraduodenally one hour before hydrochloric acid - 60% ethanol; read-out: Inhibition ratio(%).
Regarding `CC(=O)OC1C=C(C)C(=O)CC(C)(C)C1OC(C)=O` (centres unmarked) [AU102, 4,5-diacetoxy-2,6,6-trimethyl-2-cyclohepten-1-one], the inhibition in vivo at 10 mg/kg was found to be 75%.

`COC12CC(C)(C)C(O1)C(OC(C)=O)CC2C` (stereo not drawn) [AU108A, 2,4-trans-1-methoxy-4-acetoxy-2,6,6-trimethyl-8-oxabicyclo [3.2.1] octane]: the inhibition in vivo at 10 mg/kg turned out to be 75%.

Take `COC12CC(C)(C)C(O)C(C=C1C)O2` (centres unmarked) [AU153, 1-methoxy-3,3,7-trimethyl-8-oxabicyclo [3.2.1] oct-6-en-4-ol]: the inhibition in vivo at 10 mg/kg stood at 55%.

Turning to `COC1C=C(C)C2(OC)CC(C)(C)C1O2` (centres unmarked) [AU155, 1,4-dimethoxy-2,6,6-trimethyl-8-oxabicyclo [3. 2. 1] oct-2-ene], the inhibition in vivo at 10 mg/kg came out at 96%.

Regarding `CC1=CC(OCc2ccccc2)C(O)C(C)(C)CC1=O` (centres unmarked) [AU156, 4-benzyloxy-5-hydroxy-2,6,6-trimethyl-2-cyclohepten-1-one], the inhibition in vivo at 10 mg/kg was determined as 97%.

Take `COC12CC(C)(C)C(OC(C)=O)C(C=C1C)O2` (centres unmarked) [AU159, 4-acetoxy-1-methoxy-3,3,7-trimethyl-8-oxabicyclo [3.2.1] oct-6-ene]: the inhibition in vivo at 10 mg/kg turned out to be 83%.

The assay is the same for the next values; noted with them: Rattus norvegicus, intraduodenal, 1 h, Table 2; dose 20 mg/kg intraduodenally one hour before hydrochloric acid - 60% ethanol; read-out: Inhibition ratio(%).
Regarding `COC12CC(C)(C)C(O1)C(O)C=C2C` (centres unmarked) [AU152, 1-methoxy-2,6,6-trimethyl-8-oxabicyclo [3.2.1] oct-2-en-4-ol], the inhibition in vivo at 20 mg/kg came to 87%.

Staying with this assay, now noted: Rattus norvegicus, intraduodenal, 3 h, Table 1; dose 20 mg/kg intraduodenally three hours before hydrochloric acid - 60% ethanol; read-out: Inhibition ratio(%).
For `CO[C@H]1C[C@H](C)C(=O)CC(C)(C)C1OC(=O)c1ccccc1` (relative stereo) [AU123A, 2,4-trans-5-benzoyloxy-4-methoxy-2,6,6-trimethylcycloheptan-1-one], the inhibition in vivo at 20 mg/kg turned out to be 34%.

With `CC(=O)OC1C=C(C)C(=O)CC(C)(C)C1OC(C)=O` (centres unmarked) [AU102, 4,5-diacetoxy-2,6,6-trimethyl-2-cyclohepten-1-one], the inhibition in vivo at 20 mg/kg is 49%.

In the case of `COC12CC(C)(C)C(O1)C(OC(C)=O)CC2C` (stereo not drawn) [AU108A, 2,4-trans-1-methoxy-4-acetoxy-2,6,6-trimethyl-8-oxabicyclo [3.2.1] octane], the inhibition in vivo at 20 mg/kg is 55%.

For the compound `COC1CC(C)(C)C(OC(C)=O)C(OC(C)=O)C=C1C` (centres unmarked) [AU112, 4,5-diacetoxy-1-methoxy-2,6,6-trimethyl-2-cycloheptene], the inhibition in vivo at 20 mg/kg is 45%.

On to `COC1CC(C)(C)C(OC)C(OC)C=C1C` (centres unmarked) [AU113, 1,4,5-trimethoxy-2,6,6-trimethyl-2-cycloheptene], for which the inhibition in vivo at 20 mg/kg came to 39%.

With `COC1CC(C)(C)C(OC(=O)c2ccccc2)C(O)C=C1C` (centres unmarked) [AU115, 5-benzoyloxy-1-methoxy-2,6,6-trimethyl-2-cyclohepten-4-ol], the inhibition in vivo at 20 mg/kg was found to be 83%.

Consider `COC1C=C(C)C(=O)CC(C)(C)C1OC(=O)c1ccccc1` (centres unmarked) [AU121, 5-benzoyloxy-4-methoxy-2,6,6-trimethyl-2-cyclohepten-1-one], for which the inhibition in vivo at 20 mg/kg was determined as 50%.

Regarding `COC1CC(C)C(=O)CC(C)(C)C1OC(=O)c1ccccc1` (stereo not drawn) [AU123B, 2,4-cis-5-benzoyloxy-4-methoxy-2,6,6-trimethyl cycloheptan-1-one], the inhibition in vivo at 20 mg/kg turned out to be 25%.

In the case of `CC1=CC(O)C(OC(=O)c2ccccc2Cl)C(C)(C)CC1=O` (centres unmarked) [AU127, 5-(2-chlorobenzoyloxy)-4-hydroxy-2,6,6-trimethyl-2-cyclohepten-1-one], the inhibition in vivo at 20 mg/kg is 87%.

On to `CC1=CC(O)C(OC(=O)c2ccc(Cl)cc2)C(C)(C)CC1=O` (centres unmarked) [AU128, 5-(4-chlorobenzoyloxy)-4-hydroxy-2,6,6-trimethyl-2-cyclohepten-1-one], for which the inhibition in vivo at 20 mg/kg was 53%.

Take `COc1ccc(C(=O)OC2C=C(C)C(=O)CC(C)(C)C2O)cc1OC` (centres unmarked) [AU133, 4-(3,4-dimethoxybenzoyloxy)-5-hydroxy-2,6,6-trimethyl-2-cyclohepten-1-one]: the inhibition in vivo at 20 mg/kg came out at 38%.

Regarding `CC(C)=CCOC1CC(C)(C)C(O)C(OC(=O)c2ccccc2)C=C1C` (centres unmarked) [AU144, 4-benzoyloxy-1-(3-methyl-2-buten-1-yloxy)-2,6,6-trimethyl-2-cyclohepten-5-ol], the inhibition in vivo at 20 mg/kg was found to be 51%.

As to `COC12CC(C)(C)C(O1)C(=O)CC2C` (centres unmarked) [AU163, 1-methoxy-2,6,6-trimethyl-8-oxabicyclo [3.2.1] octan-4-one], the inhibition in vivo at 20 mg/kg was determined as 32%.

`CC1=CC(=O)C2OC1(OC(=O)c1ccccc1)CC2(C)C` (centres unmarked) [AU168, 1-benzoyloxy-2,6,6-trimethyl-8-oxabicyclo [3.2.1] oct-2-en-4-one]: the inhibition in vivo at 20 mg/kg was 46%.

Take `CC1=CC(O)C(OC(=O)c2ccccc2)C(C)(C)CC1=O` (centres unmarked) [AU183, 5-benzoyloxy-4-hydroxy-2,6,6-trimethyl-2-cyclohepten-1-one]: the inhibition in vivo at 20 mg/kg was 73%.

In the case of `COc1ccc(COC2CC(C)C(=O)CC(C)(C)C2OC(C)=O)cc1` (stereo not drawn) [AU185, 2,4-cis-5-acetoxy-4-(4-methoxybenzyloxy)-2,6,6-trimethylcycloheptan-1-one], the inhibition in vivo at 20 mg/kg stood at 34%.

As for `COc1ccc(COC2CC(C)C(=O)CC(C)(C)C2OC(=O)c2ccccc2)cc1` (stereo not drawn) [AU187, 2,4-cis-5-benzoyloxy-4-(4-methoxybenzyloxy)-2,6,6-trimethylcycloheptan-1-one], the inhibition in vivo at 20 mg/kg turned out to be 35%.

With `CC(=O)OC1C=C(C)C(=O)CC(C)(C)C1OC(=O)c1ccccc1` (centres unmarked) [AU189, 4-acetoxy-5-benzoyloxy-2,6,6-trimethyl-2-cyclohepten-1-one], the inhibition in vivo at 20 mg/kg is 63%.

Consider `CC1CC(O)C(OC(=O)c2ccccc2)C(C)(C)CC1=O` (stereo not drawn) [AU191, 2,4-cis-5-benzoyloxy-4-hydroxy-2,6,6-trimethyl cycloheptan-1-one], for which the inhibition in vivo at 20 mg/kg was found to be 53%.

On to `CC(=O)OC1CC(C)C(=O)CC(C)(C)C1OC(=O)c1ccccc1` (stereo not drawn) [AU192, 2,4-cis-4-acetoxy-5-benzoyloxy-2,6,6-trimethylcycloheptan-1-one], for which the inhibition in vivo at 20 mg/kg came out at 49%.

For `CC(=O)OC1C(OC(=O)c2ccccc2)C=C(C)C(=O)CC1(C)C` (centres unmarked) [AU193, 5-acetoxy-4-benzoyloxy-2,6,6-trimethyl-2-cyclohepten-1-one], the inhibition in vivo at 20 mg/kg amounted to 60%.

Consider `CC(=O)OC1C(OC(=O)c2ccccc2)CC(C)C(=O)CC1(C)C` (stereo not drawn) [AU194, 2,4-cis-5-acetoxy-4-benzoyloxy-2,6,6-trimethylcycloheptan-1-one], for which the inhibition in vivo at 20 mg/kg came to 23%.

Turning to `COc1ccc(C(=O)OC2C=C(C)C(=O)CC(C)(C)C2O)cc1` (centres unmarked) [AU195, 5-hydroxy-4-(4-methoxybenzoyloxy)-2,6,6-trimethyl-2-cyclohepten-1-one], the inhibition in vivo at 20 mg/kg is 40%.

`CC(=O)OC1C(OC(=O)c2ccc(N)cc2)C=C(C)C(=O)CC1(C)C` (centres unmarked) [AU197, 5-acetoxy-4-(4-aminobenzoyloxy)-2,6,6-trimethyl-2-cyclohepten-1-one]: the inhibition in vivo at 20 mg/kg was 44%.

As for `CC(=O)OC1C(OC(=O)c2cccc(Cl)c2)CC(C)C(=O)CC1(C)C` (stereo not drawn) [AU199, 2,4-cis-5-acetoxy-4-(3-chlorobenzoyloxy)-2,6,6-trimethylcycloheptan-1-one], the inhibition in vivo at 20 mg/kg turned out to be 29%.

For `CC1=CC(OC(=O)c2cccc([N+](=O)[O-])c2)C(O)C(C)(C)CC1=O` (centres unmarked) [AU200, 5-hydroxy-4-(3-nitrobenzoyloxy)-2,6,6-trimethyl-2-cyclohepten-1-one], the inhibition in vivo at 20 mg/kg came to 50%.

In the case of `CC1=CC(OC(=O)C=Cc2ccccc2)C(O)C(C)(C)CC1=O` (centres unmarked) [AU206, 4-cinnamoyloxy-5-hydroxy-2,6,6-trimethyl-2-cyclohepten-1-one], the inhibition in vivo at 20 mg/kg is 72%.

`CC(=O)OC1C=C(C)C(=O)CC(C)(C)C1OC(=O)C=Cc1ccccc1` (centres unmarked) [AU207, 4-acetoxy-5-cinnamoyloxy-2,6,6-trimethyl-2-cyclohepten-1-one]: the inhibition in vivo at 20 mg/kg was 56%.

`CC(=O)OC1C(OC(=O)C=Cc2ccccc2)C=C(C)C(=O)CC1(C)C` (centres unmarked) [AU208, 5-acetoxy-4-cinnamoyloxy-2,6,6-trimethyl-2-cyclohepten-1-one]: the inhibition in vivo at 20 mg/kg was determined as 39%.

Regarding `CC1=CC(O)C(OC(=O)c2cccc(N)c2)C(C)(C)CC1=O` (centres unmarked) [AU209, 5-(3-aminobenzoyloxy)-4-hydroxy-2,6,6-trimethyl-2-cyclohepten-1-one], the inhibition in vivo at 20 mg/kg amounted to 38%.

Turning to `CC1=CC(OC(=O)c2cccc(N)c2)C(O)C(C)(C)CC1=O` (centres unmarked) [AU210, 4-(3-aminobenzoyloxy)-5-hydroxy-2,6,6-trimethyl-2-cyclohepten-1-one], the inhibition in vivo at 20 mg/kg was found to be 26%.

`CC1=CC(O)C(OC(=O)c2ccc([N+](=O)[O-])cc2)C(C)(C)CC1=O` (centres unmarked) [AU211, 4-hydroxy-5-(4-nitrobenzoyloxy)-2,6,6-trimethyl-2-cyclohepten-1-one]: the inhibition in vivo at 20 mg/kg stood at 38%.

Staying with this assay, now noted: Table 1; dose 20 mg/kg intraduodenally three hours before hydrochloric acid - 60% ethanol; 20 mg/kg.
Consider `COC12CC(C)(C)C(O1)C(O)CC2C` (stereo not drawn) [AU105A, 2,4-trans-1-methoxy-2,6,6-trimethyl-8-oxabicyclo [3.2.1] octan-4-ol], for which the “Inhibition ratio(%)” value is listed as 44* %.

The values are drawn from patent EP0528699B1, “Saishin N derivatives, process for their preparation and anti-ulcer agents containing them” (TOKYO TANABE COMPANY LIMITED, priority 1991, dated 1993).
